Results reported in patent US20260158017A1, “KIF18A INHIBITOR” (WIGEN BIOMEDICINE TECHNOLOGY (SHANGHAI) CO., LTD., priority 2021, published 2026).

Target: T1, Recombinant human KIF18A (1-467His-tagged) protein (Homo sapiens, UniProt Q8NI77)
T1 construct: Recombinant human KIF18A (1-467His-tagged) protein; His; made in house
Assay: KIF18A enzyme assay (microtubule-stimulated ATPase activity, ADP-Glo)
Type: biochemical
Details: 30 nM KIF18A, 75 μM ATP, 30 μg/mL pig microtubules; read-out: Inhibitory activity against KIF18A IC50
In short: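 Buffer 15 mM Tris pH 7.5, 10 mM MgCl2, 0.01% Pluronic F-68, 1 μM paclitaxel, 30 μg/mL pig microtubules; reactions at room temperature. IC50 from inhibition relative to DMSO.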

T1 sequence (Q8NI77 1-467): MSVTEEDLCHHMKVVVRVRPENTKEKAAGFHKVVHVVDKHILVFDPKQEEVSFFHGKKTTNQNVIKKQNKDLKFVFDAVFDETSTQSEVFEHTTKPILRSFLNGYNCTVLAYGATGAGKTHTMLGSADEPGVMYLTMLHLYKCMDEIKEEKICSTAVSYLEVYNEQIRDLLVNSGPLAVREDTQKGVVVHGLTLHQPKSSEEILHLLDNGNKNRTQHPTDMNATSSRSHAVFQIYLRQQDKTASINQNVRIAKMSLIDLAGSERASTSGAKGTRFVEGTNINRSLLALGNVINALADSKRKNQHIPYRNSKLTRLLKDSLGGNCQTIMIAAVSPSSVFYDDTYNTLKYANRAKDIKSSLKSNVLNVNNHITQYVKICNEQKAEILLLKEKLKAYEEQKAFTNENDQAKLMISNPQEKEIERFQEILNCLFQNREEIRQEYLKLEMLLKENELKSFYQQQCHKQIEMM
T1 sequence (P02550 whole entry partner): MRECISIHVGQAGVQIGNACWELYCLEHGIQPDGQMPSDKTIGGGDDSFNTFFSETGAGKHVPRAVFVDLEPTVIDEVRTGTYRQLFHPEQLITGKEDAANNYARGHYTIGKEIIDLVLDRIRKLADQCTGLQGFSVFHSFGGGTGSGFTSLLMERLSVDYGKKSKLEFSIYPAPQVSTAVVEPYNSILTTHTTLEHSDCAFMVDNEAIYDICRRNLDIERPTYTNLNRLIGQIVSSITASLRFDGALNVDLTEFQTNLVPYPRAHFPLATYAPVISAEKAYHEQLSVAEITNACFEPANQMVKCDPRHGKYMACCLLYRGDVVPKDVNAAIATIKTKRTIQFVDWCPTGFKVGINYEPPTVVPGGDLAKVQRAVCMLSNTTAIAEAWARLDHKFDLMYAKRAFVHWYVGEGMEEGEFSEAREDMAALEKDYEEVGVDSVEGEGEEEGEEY
T1 sequence (P02554 whole entry partner): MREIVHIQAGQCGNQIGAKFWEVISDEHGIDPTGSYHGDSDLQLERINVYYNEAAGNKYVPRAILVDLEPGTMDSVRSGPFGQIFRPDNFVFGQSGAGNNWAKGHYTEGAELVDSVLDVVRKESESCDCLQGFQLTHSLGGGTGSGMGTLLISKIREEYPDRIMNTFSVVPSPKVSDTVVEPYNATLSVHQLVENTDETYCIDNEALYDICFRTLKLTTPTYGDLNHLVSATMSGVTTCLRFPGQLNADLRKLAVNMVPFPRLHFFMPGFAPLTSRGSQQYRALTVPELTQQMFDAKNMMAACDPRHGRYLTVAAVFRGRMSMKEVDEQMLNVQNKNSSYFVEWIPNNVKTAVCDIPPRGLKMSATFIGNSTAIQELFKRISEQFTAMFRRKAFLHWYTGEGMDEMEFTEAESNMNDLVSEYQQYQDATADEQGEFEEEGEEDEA

Compound | IC50 [µM]
CC(C)(CO)Nc1cc(C(=O)Nc2ccc(S(=O)(=O)NCCO)cc2N2CCC3(CC2)CC3)ccc1OCF [Compound 539] | 0.1 to 0.5
O=C(Nc1ccc(S(=O)(=O)NCCO)cc1N1CCC2(CC1)CC2)c1ccc(OCF)c(N2CCOCC2)c1 [Compound 540] | 0.1 to 0.5
C[C@@H](CO)NS(=O)(=O)c1ccc(NC(=O)c2ccc(OCF)c(N3CCC(F)(F)CC3)c2)c(N2CCC3(CC2)CC3)c1 [Compound 541] | 0.1 to 0.5
C[C@H](CO)NS(=O)(=O)c1ccc(NC(=O)c2ccc(OCF)c(N3CCC(F)(F)CC3)c2)c(N2CCC3(CC2)CC3)c1 [Compound 542] | 0.1 to 0.5
C[C@@H]1CN(c2cc(C(=O)Nc3ccc(S(=O)(=O)N[C@@H](C)CO)cc3N3CCC4(CC3)CC4)ccc2OCF)CCO1 [Compound 543] | 0.1 to 0.5
C[C@H](CO)NS(=O)(=O)c1ccc(NC(=O)c2ccc(OCF)c(N3CCO[C@H](C)C3)c2)c(N2CCC3(CC2)CC3)c1 [Compound 544] | 0.1 to 0.5
O=C(Nc1ccc(NS(=O)(=O)CCO)cc1N1CCC2(CC1)CC2)c1ccc(OCF)c(N2CCC(F)(F)CC2)n1 [Compound 545] | ≤ 0.1
C[C@@H]1CN(c2nc(C(=O)Nc3ccc(NS(=O)(=O)CCO)cc3N3CCC4(CC3)CC4)ccc2OCF)CCO1 [Compound 546] | ≤ 0.1
C[C@H]1CN(c2nc(C(=O)Nc3ccc(NS(=O)(=O)CCO)cc3N3CCC4(CC3)CC4)ccc2OCF)CCO1 [Compound 547] | ≤ 0.1
O=C(Nc1ccc(NS(=O)(=O)CCO)cc1N1CCC2(CC1)CC2)c1ccc(OCF)c(N2CC(F)(F)C2)n1 [Compound 548] | ≤ 0.1
O=C(Nc1ccc(NS(=O)(=O)CCO)cc1N1CCC2(CC1)CC2)c1ccc(OCF)c(OCCC(F)(F)F)n1 [Compound 549] | ≤ 0.1
O=C(Nc1ccc(NS(=O)(=O)CCO)cc1N1CCC2(CC1)CC2)c1ccc(OCF)c(N2CCC3(CC3)C2)n1 [Compound 550] | ≤ 0.1
O=C(Nc1ccc(NS(=O)(=O)CCO)cc1N1CCC2(CC1)CC2)c1ccc(OCF)c(OC2CCC2)n1 [Compound 551] | ≤ 0.1
CC1(F)CCN(c2nc(C(=O)Nc3ccc(NS(=O)(=O)CCO)cc3N3CCC4(CC3)CC4)ccc2OCF)C1 (stereo not shown) [Compound 552] | ≤ 0.1
O=C(Nc1ccc(NS(=O)(=O)CCO)cc1N1CCC2(CC1)CC2)c1ccc(OCF)c(N2CCC(F)CC2)n1 [Compound 553] | ≤ 0.1
O=C(Nc1ccc(NS(=O)(=O)CCO)cc1N1CCC2(CC1)CC2)c1ccc(OCF)c(N2CC3CC3C2)n1 (stereo not shown) [Compound 554] | ≤ 0.1
CC(C)(CO)Nc1nc(C(=O)Nc2ccc(NS(=O)(=O)CCO)cc2N2CCC3(CC2)CC3)ccc1OCF [Compound 555] | ≤ 0.1
O=C(Nc1ccc(NS(=O)(=O)CCO)cc1N1CCC2(CC1)CC2)c1ccc(OCF)c(N2CCOCC2)n1 [Compound 556] | ≤ 0.1
C[C@@H](CO)S(=O)(=O)Nc1ccc(NC(=O)c2ccc(OCF)c(N3CCC(F)(F)CC3)n2)c(N2CCC3(CC2)CC3)c1 [Compound 557] | ≤ 0.1
C[C@H](CO)S(=O)(=O)Nc1ccc(NC(=O)c2ccc(OCF)c(N3CCC(F)(F)CC3)n2)c(N2CCC3(CC2)CC3)c1 [Compound 558] | ≤ 0.1
C[C@@H]1CN(c2nc(C(=O)Nc3ccc(NS(=O)(=O)[C@@H](C)CO)cc3N3CCC4(CC3)CC4)ccc2OCF)CCO1 [Compound 559] | ≤ 0.1
C[C@@H]1CN(c2nc(C(=O)Nc3ccc(NS(=O)(=O)[C@H](C)CO)cc3N3CCC4(CC3)CC4)ccc2OCF)CCO1 [Compound 560] | ≤ 0.1

Compound | IC50 [µM]
O=C(Nc1ccc(S(=O)(=O)NCCO)cc1N1CCC2(CC1)CC2)c1ccc(OCF)c(N2CCC(F)(F)CC2)n1 [Compound 561] | 0.1 to 0.5
C[C@@H]1CN(c2nc(C(=O)Nc3ccc(S(=O)(=O)NCCO)cc3N3CCC4(CC3)CC4)ccc2OCF)CCO1 [Compound 562] | 0.1 to 0.5
C[C@H]1CN(c2nc(C(=O)Nc3ccc(S(=O)(=O)NCCO)cc3N3CCC4(CC3)CC4)ccc2OCF)CCO1 [Compound 563] | 0.1 to 0.5
O=C(Nc1ccc(S(=O)(=O)NCCO)cc1N1CCC2(CC1)CC2)c1ccc(OCF)c(N2CC(F)(F)C2)n1 [Compound 564] | 0.1 to 0.5
O=C(Nc1ccc(S(=O)(=O)NCCO)cc1N1CCC2(CC1)CC2)c1ccc(OCF)c(OCCC(F)(F)F)n1 [Compound 565] | 0.1 to 0.5
O=C(Nc1ccc(S(=O)(=O)NCCO)cc1N1CCC2(CC1)CC2)c1ccc(OCF)c(N2CCC3(CC3)C2)n1 [Compound 566] | 0.1 to 0.5
O=C(Nc1ccc(S(=O)(=O)NCCO)cc1N1CCC2(CC1)CC2)c1ccc(OCF)c(OC2CCC2)n1 [Compound 567] | 0.1 to 0.5
CC1(F)CCN(c2nc(C(=O)Nc3ccc(S(=O)(=O)NCCO)cc3N3CCC4(CC3)CC4)ccc2OCF)C1 (stereo not shown) [Compound 568] | 0.1 to 0.5
O=C(Nc1ccc(S(=O)(=O)NCCO)cc1N1CCC2(CC1)CC2)c1ccc(OCF)c(N2CCC(F)CC2)n1 [Compound 569] | 0.1 to 0.5
O=C(Nc1ccc(S(=O)(=O)NCCO)cc1N1CCC2(CC1)CC2)c1ccc(OCF)c(N2CC3CC3C2)n1 (stereo not shown) [Compound 570] | 0.1 to 0.5
CC(C)(CO)Nc1nc(C(=O)Nc2ccc(S(=O)(=O)NCCO)cc2N2CCC3(CC2)CC3)ccc1OCF [Compound 571] | 0.1 to 0.5
O=C(Nc1ccc(S(=O)(=O)NCCO)cc1N1CCC2(CC1)CC2)c1ccc(OCF)c(N2CCOCC2)n1 [Compound 572] | 0.1 to 0.5
C[C@@H](CO)NS(=O)(=O)c1ccc(NC(=O)c2ccc(OCF)c(N3CCC(F)(F)CC3)n2)c(N2CCC3(CC2)CC3)c1 [Compound 573] | 0.1 to 0.5
C[C@H](CO)NS(=O)(=O)c1ccc(NC(=O)c2ccc(OCF)c(N3CCC(F)(F)CC3)n2)c(N2CCC3(CC2)CC3)c1 [Compound 574] | 0.1 to 0.5
C[C@@H]1CN(c2nc(C(=O)Nc3ccc(S(=O)(=O)N[C@@H](C)CO)cc3N3CCC4(CC3)CC4)ccc2OCF)CCO1 [Compound 575] | 0.1 to 0.5
C[C@H](CO)NS(=O)(=O)c1ccc(NC(=O)c2ccc(OCF)c(N3CCO[C@H](C)C3)n2)c(N2CCC3(CC2)CC3)c1 [Compound 576] | 0.1 to 0.5
CSc1ccc(NC(=O)c2ccc(NS(=O)(=O)CCO)cc2N2CCC3(CC2)CC3)cc1N1CCC(F)(F)CC1 [Compound 577] | ≤ 0.1
CSc1ccc(NC(=O)c2ccc(NS(=O)(=O)CCO)cc2N2CCC3(CC2)CC3)cc1N1CCO[C@H](C)C1 [Compound 578] | ≤ 0.1
CSc1ccc(NC(=O)c2ccc(NS(=O)(=O)CCO)cc2N2CCC3(CC2)CC3)cc1N1CCO[C@@H](C)C1 [Compound 579] | ≤ 0.1
CSc1ccc(NC(=O)c2ccc(NS(=O)(=O)CCO)cc2N2CCC3(CC2)CC3)cc1N1CC(F)(F)C1 [Compound 580] | ≤ 0.1
CSc1ccc(NC(=O)c2ccc(NS(=O)(=O)CCO)cc2N2CCC3(CC2)CC3)cc1OCCC(F)(F)F [Compound 581] | ≤ 0.1

Other lines, results leading:

IC50 [µM] | Compound
≤ 0.1 | CSc1ccc(NC(=O)c2ccc(NS(=O)(=O)CCO)cc2N2CCC3(CC2)CC3)cc1N1CCC2(CC2)C1 [Compound 582]
≤ 0.1 | CSc1ccc(NC(=O)c2ccc(NS(=O)(=O)CCO)cc2N2CCC3(CC2)CC3)cc1OC1CCC1 [Compound 583]
≤ 0.1 | CSc1ccc(NC(=O)c2ccc(NS(=O)(=O)CCO)cc2N2CCC3(CC2)CC3)cc1N1CCC(C)(F)C1 (stereo not shown) [Compound 584]
≤ 0.1 | CSc1ccc(NC(=O)c2ccc(NS(=O)(=O)CCO)cc2N2CCC3(CC2)CC3)cc1N1CCC(F)CC1 [Compound 585]
≤ 0.1 | CSc1ccc(NC(=O)c2ccc(NS(=O)(=O)CCO)cc2N2CCC3(CC2)CC3)cc1N1CC2CC2C1 (stereo not shown) [Compound 586]
≤ 0.1 | CSc1ccc(NC(=O)c2ccc(NS(=O)(=O)CCO)cc2N2CCC3(CC2)CC3)cc1NC(C)(C)CO [Compound 587]
≤ 0.1 | CSc1ccc(NC(=O)c2ccc(NS(=O)(=O)CCO)cc2N2CCC3(CC2)CC3)cc1N1CCOCC1 [Compound 588]
≤ 0.1 | CSc1ccc(NC(=O)c2ccc(NS(=O)(=O)[C@@H](C)CO)cc2N2CCC3(CC2)CC3)cc1N1CCC(F)(F)CC1 [Compound 589]
≤ 0.1 | CSc1ccc(NC(=O)c2ccc(NS(=O)(=O)[C@H](C)CO)cc2N2CCC3(CC2)CC3)cc1N1CCC(F)(F)CC1 [Compound 590]
≤ 0.1 | CSc1ccc(NC(=O)c2ccc(NS(=O)(=O)[C@@H](C)CO)cc2N2CCC3(CC2)CC3)cc1N1CCO[C@H](C)C1 [Compound 591]
≤ 0.1 | CSc1ccc(NC(=O)c2ccc(NS(=O)(=O)[C@H](C)CO)cc2N2CCC3(CC2)CC3)cc1N1CCO[C@H](C)C1 [Compound 592]
≤ 0.1 | CSc1ccc(NC(=O)c2ccc(NS(=O)(=O)CCO)cc2N2CCC3(CC2)CC3)nc1N1CCO[C@H](C)C1 [Compound 594]
≤ 0.1 | CSc1ccc(NC(=O)c2ccc(NS(=O)(=O)CCO)cc2N2CCC3(CC2)CC3)nc1N1CCO[C@@H](C)C1 [Compound 595]
≤ 0.1 | CSc1ccc(NC(=O)c2ccc(NS(=O)(=O)CCO)cc2N2CCC3(CC2)CC3)nc1N1CC(F)(F)C1 [Compound 596]
≤ 0.1 | CSc1ccc(NC(=O)c2ccc(NS(=O)(=O)CCO)cc2N2CCC3(CC2)CC3)nc1OCCC(F)(F)F [Compound 597]
≤ 0.1 | CSc1ccc(NC(=O)c2ccc(NS(=O)(=O)CCO)cc2N2CCC3(CC2)CC3)nc1N1CCC2(CC2)C1 [Compound 598]
≤ 0.1 | CSc1ccc(NC(=O)c2ccc(NS(=O)(=O)CCO)cc2N2CCC3(CC2)CC3)nc1OC1CCC1 [Compound 599]
≤ 0.1 | CSc1ccc(NC(=O)c2ccc(NS(=O)(=O)CCO)cc2N2CCC3(CC2)CC3)nc1N1CCC(C)(F)C1 (stereo not shown) [Compound 600]
≤ 0.1 | CSc1ccc(NC(=O)c2ccc(NS(=O)(=O)CCO)cc2N2CCC3(CC2)CC3)nc1N1CCC(F)CC1 [Compound 601]
≤ 0.1 | CSc1ccc(NC(=O)c2ccc(NS(=O)(=O)CCO)cc2N2CCC3(CC2)CC3)nc1N1CC2CC2C1 (stereo not shown) [Compound 602]
≤ 0.1 | CSc1ccc(NC(=O)c2ccc(NS(=O)(=O)CCO)cc2N2CCC3(CC2)CC3)nc1NC(C)(C)CO [Compound 603]
